Experimental data from patent US10752588B2 (The Broad Institute, Inc., priority 2014, dated 2020).

Columns and labels:
[1] = target: T1, human D2R/β-arrestin (Homo sapiens (Human), UniProt P14416); assay: cell-based; settings: β-arrestin Antagonist
[2] = target: T1, human D2R/β-arrestin; assay: Gi/cAMP agonist assay (Lance Ultra cAMP, Forskolin); format: cell-based; settings: CHO-K1 cell line expressing human D2R/β-arrestin
Summary of the method: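 Cells were plated and incubated before compounds were pin-transferred and incubated for 10 min at 37 °C. Forskolin was then added to stimulate cAMP. cAMP was detected by Lance Ultra TR-FRET using Eu-cAMP tracer and ULight-anti-cAMP antibody.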

[3] = target: T1, human D2R/β-arrestin; assay: β-Arrestin agonist assay (PathHunter); format: cell-based; settings: CHO-K1 cell line expressing human D2R/β-arrestin
Summary of the method: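 After compound incubation, detection reagent (Buffer:Emerald II:Galactor-Star, 19:5:1) added and luminescence or fluorescence read.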

[4] = target: T1, human D2R/β-arrestin; assay: cell-based; settings: cAMP Antagonist
[5] = CHO-K1 cell line expressing human D2R/β-arrestin, quinpirole used as agonist

T1 sequence (P14416 whole entry): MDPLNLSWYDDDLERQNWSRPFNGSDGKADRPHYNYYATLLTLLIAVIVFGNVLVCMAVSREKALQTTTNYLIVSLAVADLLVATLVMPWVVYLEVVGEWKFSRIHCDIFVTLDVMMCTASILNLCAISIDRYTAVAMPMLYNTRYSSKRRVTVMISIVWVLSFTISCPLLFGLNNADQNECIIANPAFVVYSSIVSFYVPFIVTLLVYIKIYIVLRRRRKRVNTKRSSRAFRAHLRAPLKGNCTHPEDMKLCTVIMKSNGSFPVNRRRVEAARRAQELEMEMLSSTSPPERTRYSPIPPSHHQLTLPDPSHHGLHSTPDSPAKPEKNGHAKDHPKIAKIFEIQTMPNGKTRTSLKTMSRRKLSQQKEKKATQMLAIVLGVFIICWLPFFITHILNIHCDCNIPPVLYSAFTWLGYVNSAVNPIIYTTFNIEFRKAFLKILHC

## O=C(NC(c1ccc(F)cc1)c1ccccn1)C1CCN(CCOc2cc(F)ccc2F)CC1 (stereo not drawn) [Compound 57, 1-(2-(2,5-difluorophenoxy)ethyl)-N-((4-fluorophenyl)(pyridin-2-yl)methyl) piperidine-4-carboxamide]
[1]; [5]
  IC50: 0.1 to 1 µM
[2]
  EC50: 0.1 to 1 µM
[3]
  EC50: > 30 µM
[4]; [5]
  IC50: > 30 µM

## FC(F)(F)c1ccccc1OCCN1CCC2(CC1)CCN(C(c1ccc(Cl)cc1)c1ccccn1)C2 (stereo not drawn) [Compound 106, 2-((4-chlorophenyl)(pyridin-2-yl)methyl)-8-(2-(2-(trifluoromethyl)phenoxy)ethyl)-2,8-diazaspiro[4.5]decane]
[1]; [5]
  IC50: 0.1 to 1 µM
[2]
  EC50: 1 to 10 µM
[3]
  EC50: > 30 µM
[4]; [5]
  IC50: 1 to 10 µM

## O=C(NC(c1ccc(Cl)cc1)c1ccncc1F)C1CCN(CCOc2ccccc2F)CC1 (single isomer, unassigned) [Compound 91a, N-((4-chlorophenyl)(3-fluoropyridin-4-yl)methyl)-1-(2-(2-fluorophenoxy)ethyl)piperidine-4-carboxamide]
[1]; [5]
  IC50: 1 to 10 µM
[2]
  EC50: 0.1 to 1 µM
[3]
  EC50: > 30 µM
[4]; [5]
  IC50: > 30 µM

## O=C(NC(c1ccc(Cl)cc1)c1ccccn1)C1CCN(CCOc2ccccn2)CC1 (stereo not drawn) [Compound 141, N-((4-chlorophenyl)(pyridin-2-yl)methyl)-1-(2-(pyridin-2-yloxy)ethyl)piperidine-4-carboxamide]
[1]; [5]
  IC50: 1 to 10 µM
[2]
  EC50: > 30 µM
[3]
  EC50: > 30 µM
[4]; [5]
  IC50: 1 to 10 µM

## CN(CC1CCN(CCOc2ccccc2F)CC1)C(c1ccc2c(c1)OCO2)c1ccccn1 (single isomer, unassigned) [Compound 138a, 1-(benzo[d][1,3]dioxol-5-yl)-N-((1-(2-(2-fluorophenoxy)ethyl)piperidin-4-yl)methyl)-N-methyl-1-(pyridin-2-yl)methanamine]
[1]; [5]
  IC50: 0.1 to 1 µM
[2]
  EC50: < 0.1 µM
[3]
  EC50: 0.1 to 1 µM
[4]; [5]
  IC50: > 30 µM

## FC(F)(F)c1ccccc1OCCN1CCC(CNC(c2ccc(Cl)cc2)c2ccccn2)CC1 (stereo not drawn) [Compound 120, 1-(4-chlorophenyl)-1-(pyridin-2-yl)-N-((1-(2-(2-(trifluoromethyl)phenoxy)ethyl)piperidin-4-yl)methyl)methanamine]
[1]; [5]
  IC50: < 0.1 µM
[2]
  EC50: > 30 µM
[3]
  EC50: > 30 µM
[4]; [5]
  IC50: < 0.1 µM

## Fc1ccccc1OCCN1CCC(CN(CC(F)(F)F)C(c2ccc(Cl)cc2)c2ccccn2)CC1 (single isomer, unassigned) [Compound 136a, N-((4-chlorophenyl)(pyridin-2-yl)methyl)-2,2,2-trifluoro-N-((1-(2-(2-fluorophenoxy)ethyl)piperidin-4-yl)methyl)ethan-1-amine]
[1]; [5]
  IC50: 0.1 to 1 µM
[2]
  EC50: 1 to 10 µM
[3]
  EC50: 0.1 to 1 µM
[4]; [5]
  IC50: > 30 µM

## Fc1ccc(F)c(OCCN2CCC(CNC(c3ccc(Cl)cc3)c3ccccn3)CC2)c1 (single isomer, unassigned) [Compound 89b, 1-(4-chlorophenyl)-N-((1-(2-(2,5-difluorophenoxy)ethyl)piperidin-4-yl)methyl)-1-(pyridin-2-yl)methanamine]
[1]; [5]
  IC50: 1 to 10 µM
[2]
  EC50: 0.1 to 1 µM
[3]
  EC50: > 30 µM
[4]; [5]
  IC50: 10 to 30 µM

## CC(C)C(NC(=O)C1CCN(CCOc2ccccc2)CC1)c1ccccn1 (stereo not drawn) [Compound 38, N-(2-methyl-1-(pyridin-2-yl)propyl)-1-(2-phenoxyethyl)piperidine-4-carboxamide]
[1]; [5]
  IC50: 1 to 10 µM
[2]
  EC50: 1 to 10 µM
[3]
  EC50: > 30 µM
[4]; [5]
  IC50: > 30 µM

## CC(C)(COc1ccccc1)N1CCC(C(=O)NC(c2ccc(F)cc2)c2ccccn2)CC1 (stereo not drawn) [Compound 58]
[1]; [5]
  IC50: 10 to 30 µM
[2]
  EC50: > 30 µM
[3]
  EC50: > 30 µM
[4]; [5]
  IC50: 10 to 30 µM

## CN(CC1CCN(CCOc2ccccc2C(F)(F)F)CC1)C(c1ccc(Cl)cc1)c1ccccn1 (stereo not drawn) [Compound 73]
[1]; [5]
  IC50: < 0.1 µM
[2]
  EC50: > 30 µM
[3]
  EC50: > 30 µM
[4]; [5]
  IC50: < 0.1 µM

## O=C(NC(c1ccccn1)c1ccccn1)C1CCN(CCOc2ccccc2)CC1 [Compound 30, N-(di(pyridin-2-yl)methyl)-1-(2-phenoxyethyl)piperidine-4-carboxamide]
[1]; [5]
  IC50: 10 to 30 µM
[2]
  EC50: 1 to 10 µM
[3]
  EC50: > 30 µM
[4]; [5]
  IC50: > 30 µM

## CC1(C(=O)NC(c2ccc(Cl)cc2)c2ccccn2)CCN(CCOc2ccccc2)CC1 (stereo not drawn) [Compound 144, N-((4-chlorophenyl)(pyridin-2-yl)methyl)-4-methyl-1-(2-phenoxyethyl)piperidine-4-carboxamide]
[1]; [5]
  IC50: < 0.1 µM
[2]
  EC50: < 0.1 µM
[3]
  EC50: < 0.1 µM
[4]; [5]
  IC50: > 30 µM

## Fc1ccccc1OCCN1CCC(CN(CC(F)(F)F)C(c2ccc(Cl)cc2)c2ccccn2)CC1 (single isomer, unassigned) [Compound 136b, N-((4-chlorophenyl)(pyridin-2-yl)methyl)-2,2,2-trifluoro-N-((1-(2-(2-fluorophenoxy)ethyl)piperidin-4-yl)methyl)ethan-1-amine]
[1]; [5]
  IC50: < 0.1 µM
[2]
  EC50: > 30 µM
[3]
  EC50: > 30 µM
[4]; [5]
  IC50: < 0.1 µM

## COc1cccc(C(c2ccccn2)N(CC2CCN(CCOc3ccccc3F)CC2)C(C)C)c1 (stereo not drawn) [Compound 134, N-((1-(2-(2-fluorophenoxy)ethyl)piperidin-4-yl)methyl)-N-((3-methoxyphenyl)(pyridin-2-yl)methyl)propan-2-amine]
[1]; [5]
  IC50: 0.1 to 1 µM
[2]
  EC50: < 0.1 µM
[3]
  EC50: > 30 µM
[4]; [5]
  IC50: 0.1 to 1 µM

## CN(CC1CCN(CCOc2ccccc2)CC1)C(c1ccc(Cl)cc1)c1ccccn1 (single isomer, unassigned) [Compound 79a, 1-(4-chlorophenyl)-N-methyl-N-((1-(2-phenoxyethyl)piperidin-4-yl)methyl)-1-(pyridin-2-yl)methanamine]
[1]; [5]
  IC50: 1 to 10 µM
[2]
  EC50: > 30 µM
[3]
  EC50: > 30 µM
[4]; [5]
  IC50: 1 to 10 µM

## COc1cccc(C(NC(=O)C2CCN(CCOc3ccc(F)cc3F)CC2)c2ccccn2)c1 (stereo not drawn) [Compound 145, 1-(2-(2,4-difluorophenoxy)ethyl)-N-((3-methoxyphenyl)(pyridin-2-yl)methyl)piperidine-4-carboxamide]
[1]; [5]
  IC50: 1 to 10 µM
[2]
  EC50: 10 to 30 µM
[3]
  EC50: > 30 µM
[4]; [5]
  IC50: 1 to 10 µM

## Fc1ccccc1C(NCC1CCN(CCOc2ccccc2)CC1)c1ccc(Cl)cc1 (single isomer, unassigned) [Compound 81a, 1-(4-chlorophenyl)-1-(2-fluorophenyl)-N-((1-(2-phenoxyethyl)piperidin-4-yl)methyl)methanamine]
[1]; [5]
  IC50: 0.1 to 1 µM
[2]
  EC50: > 30 µM
[3]
  EC50: > 30 µM
[4]; [5]
  IC50: 0.1 to 1 µM

## O=C(NC(c1ccc(Cl)cc1)c1ccccc1F)C1CCN(CCOc2cc(F)ccc2F)CC1 (stereo not drawn) [Compound 123, N-((4-chlorophenyl)(2-fluorophenyl)methyl)-1-(2-(2,5-difluorophenoxy)ethyl) piperidine-4-carboxamide]
[1]; [5]
  IC50: 0.1 to 1 µM
[2]
  EC50: < 0.1 µM
[3]
  EC50: > 30 µM
[4]; [5]
  IC50: > 30 µM

## COc1cccc(C(NC(=O)C2CCN(CCOc3cc(F)ccc3F)CC2)c2ccccn2)c1 (stereo not drawn) [Compound 90, 1-(2-(2,5-difluorophenoxy)ethyl)-N-((3-methoxyphenyl)(pyridin-2-yl)methyl) piperidine-4-carboxamide]
[1]; [5]
  IC50: 1 to 10 µM
[2]
  EC50: 1 to 10 µM
[3]
  EC50: > 30 µM
[4]; [5]
  IC50: 1 to 10 µM

## CC(C)N(CC1CCN(CCOc2ccccc2)CC1)C(c1ccc(Cl)cc1)c1ccccn1 (single isomer, unassigned) [Compound 103a, N-((4-chlorophenyl)(pyridin-2-yl)methyl)-N-((1-(2-phenoxyethyl)piperidin-4-yl)methyl)propan-2-amine]
[1]
  IC50: 0.1 to 1 µM
[2]
  EC50: 0.1 to 1 µM
[3]
  EC50: > 30 µM
[4]
  IC50: < 0.1 µM

## Clc1ccc(C(NCC2CCN(CCOc3ccccc3)CC2)c2ccccn2)cc1 (single isomer, unassigned) [Compound 114b, 1-(4-chlorophenyl)-N-((1-(2-phenoxyethyl)piperidin-4-yl)methyl)-1-(pyridin-2-yl)methanamine]
[1]; [5]
  IC50: 0.1 to 1 µM
[2]
  EC50: 0.1 to 1 µM
[3]
  EC50: > 30 µM
[4]; [5]
  IC50: > 30 µM

## Fc1ccc(F)c(OCCN2CCC(CNC(c3ccc(Cl)cc3)c3ccccn3)CC2)c1 (stereo not drawn) [Compound 89, 1-(4-chlorophenyl)-N-((1-(2-(2,5-difluorophenoxy)ethyl)piperidin-4-yl)methyl)-1-(pyridin-2-yl)methanamine]
[1]; [5]
  IC50: 0.1 to 1 µM
[2]
  EC50: > 30 µM
[3]
  EC50: > 30 µM
[4]; [5]
  IC50: 0.1 to 1 µM

## O=C(NC(c1ccc(Cl)cc1)c1ccccn1)C1CCN(CCOc2ccccc2OC(F)(F)F)CC1 (stereo not drawn) [Compound 68, N-((4-chlorophenyl)(pyridin-2-yl)methyl)-1-(2-(2-(trifluoromethoxy)phenoxy)ethyl) piperidine-4-carboxamide]
[1]; [5]
  IC50: < 0.1 µM
[2]
  EC50: > 30 µM
[3]
  EC50: > 30 µM
[4]; [5]
  IC50: < 0.1 µM

## FC(F)(F)CN(CC1CCN(CCOc2ccccc2)CC1)C(c1ccc(Cl)cc1)c1ccccn1 (single isomer, unassigned) [Compound 125a, N-((4-chlorophenyl)(pyridin-2-yl)methyl)-2,2,2-trifluoro-N-((1-(2-phenoxyethyl)piperidin-4-yl)methyl)ethanamine]
[1]; [5]
  IC50: 1 to 10 µM
[2]
  EC50: 0.1 to 1 µM
[3]
  EC50: > 30 µM
[4]; [5]
  IC50: > 30 µM

## COc1cccc(C(NC(=O)C2CCN(CCOc3ccccc3)CC2)c2ccccc2F)c1 (stereo not drawn) [Compound 50]
[1]; [5]
  IC50: 1 to 10 µM
[2]
  EC50: 0.1 to 1 µM
[3]
  EC50: > 30 µM
[4]; [5]
  IC50: > 30 µM

## O=C(NC(c1cccnc1)c1ccccn1)C1CCN(CCOc2ccccc2)CC1 (stereo not drawn) [Compound 29, 1-(2-phenoxyethyl)-N-(pyridin-2-yl(pyridin-3-yl)methyl)piperidine-4-carboxamide]
[1]; [5]
  IC50: 1 to 10 µM
[2]
  EC50: 0.1 to 1 µM
[3]
  EC50: > 30 µM
[4]; [5]
  IC50: > 30 µM
